Literature values, collected in patent US5837685A (priority 1996, dated 1998).

Assays:
patients = details: some impairment of renal function regardless of dosage

For `C[C@@H]1[C@H](O)[C@@H](C)/C=C/C=C/C=C/C=C/C=C/C=C/C=C/[C@H](O[C@@H]2O[C@H](C)[C@@H](O)[C@H](N)[C@@H]2O)C[C@@H]2O[C@](O)(C[C@@H](O)C[C@@H](O)[C@H](O)CC[C@@H](O)C[C@@H](O)CC(=O)O[C@H]1C)C[C@H](O)[C@H]2C(=O)O` [Amphotericin B], the “active in vitro at concentrations of” value (Candida) is listed as 0.01 to 2 µg/mL and the toxicity (patients) is listed as “highly toxic”.
